Where no end group is shown, it is not given here. [ ]: non-standard residue; d: D form. c(FΦRRRRE) = cyclic peptide with F and E termini bonded, Φ = L-2-naphthylalanine
How the values were obtained:
p62 = p62 degradation assay (p62/actin immunoblot);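 as to Activity (μM) 10, p62/actin assay activity: HeLa cells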;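 as to Activity (μM) 100, p62/actin assay activity: HeLa cells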;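 as to Activity (μM) 20, p62/actin assay activity: HeLa cells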;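 as to Activity (μM) 30, p62/actin assay activity: HeLa cells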;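 as to Activity (μM) 50, p62/actin assay activity: HeLa cells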; assay type: cell-based; parameters: key: −: activity not reported; 0: decreased vs. WT; +: similar to WT; ++: modest increase vs. WT; +++: significant increase vs. WT; conditions: for Activity (μM) 10, p62/actin assay activity: 10 μM; for Activity (μM) 30, p62/actin assay activity: 30 μM; for Activity (μM) 50, p62/actin assay activity: 50 μM; for Activity (μM) 100, p62/actin assay activity: 100 μM; for Activity (μM) 20, p62/actin assay activity: 20 μM
Description: (§1) Cells were treated with peptide in OPTI-MEM (Thermo Scientific) acidified with 0.15% (v/v) 6N HCl for 3 hour. Cells were rinsed with Dulbecco's phosphate buffered saline (PBS) and lysed in lysis buffer (20 mM HEPES, 150 mM NaCl, 1 mM EDTA, 1% Triton X-100, protease inhibitor cocktail (Roche) on ice for 1 hour. Cell lysates were centrifuged at 16,000 g for 10 min at 4° C. and analyzed by SDS-PAGE and transferred to PVDF membranes. The membranes were blocked 5% non-fat dry milk (NFDM) in PBST (PBS+0.05% Tween-20) for 1 hour, then incubated overnight at 4° C. with primary antibody in 5% NFDM in PBST. The blots were washed with PBST and incubated with HRP-conjugated secondary antibodies diluted in 5% NFDM in PBST for 1 hour at room temperature. Membranes were washed with PBST and visualized with SuperSignal West Pico Chemiluminescent Substrate (Thermo Scientific). Semi-quantitative results were obtained by noting the lowest concentration at which both p62 degradation and LC3-I to LC3-II conversion were observed.
(§2) Compounds 1-10 were evaluated using the assays described in Examples 4 and 5. Activity for each compound was measured in the p62 degradation assay and the LC3 marker assay as described herein. The activity at each concentration of peptide is given as, for example, (0/+) where 0 would be the p62/actin assay activity and + would be the LC3 assay activity.

LC3 = LC3 marker assay (LC3-I to LC3-II conversion immunoblot);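 as to Activity (μM) 10, LC3 assay activity: HeLa cells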;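 as to Activity (μM) 100, LC3 assay activity: HeLa cells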;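 as to Activity (μM) 20, LC3 assay activity: HeLa cells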;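 as to Activity (μM) 30, LC3 assay activity: HeLa cells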;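 as to Activity (μM) 50, LC3 assay activity: HeLa cells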; assay type: cell-based; parameters: key: −: activity not reported; 0: decreased vs. WT; +: similar to WT; ++: modest increase vs. WT; +++: significant increase vs. WT; conditions: for Activity (μM) 10, LC3 assay activity: 10 μM; for Activity (μM) 30, LC3 assay activity: 30 μM; for Activity (μM) 50, LC3 assay activity: 50 μM; for Activity (μM) 100, LC3 assay activity: 100 μM; for Activity (μM) 20, LC3 assay activity: 20 μM
Description: as §1, §2

[1] = Table 8, control compound T25, first symbol
[2] = Table 8, control compound T25, second symbol
[3] = Table 3, control vehicle, first symbol of cell
[4] = Table 3, control vehicle, first symbol
[5] = Table 7, control compound T25, first symbol
[6] = Table 3, control vehicle, second symbol of cell
[7] = Table 3, control vehicle, second symbol
[8] = Table 7, control compound T25, second symbol
[9] = Table 6, control DMSO, first symbol
[10] = Table 6, control DMSO, second symbol

Sequence: VCNACFHIWH [Compound 54]
- Activity (μM) 10, p62/actin assay activity (p62; [1]): +
- Activity (μM) 30, p62/actin assay activity (p62; [1]): ++
- Activity (μM) 50, p62/actin assay activity (p62; [1]): ++
- Activity (μM) 10, LC3 assay activity (LC3; [2]): 0
- Activity (μM) 30, LC3 assay activity (LC3; [2]): 0
- Activity (μM) 50, LC3 assay activity (LC3; [2]): 0

Sequence: VCNATCHIWR (V[dC]NAT[dC]HIWR; cysteine pairing not given here) [Compound 38]
- Activity (μM) 50, p62/actin assay activity (p62; [1]): 0/0
- Activity (μM) 100, p62/actin assay activity (p62; [1]): 0/0
- Activity (μM) 50, LC3 assay activity (LC3; [2]): 0/0
- Activity (μM) 100, LC3 assay activity (LC3; [2]): 0/0

Sequence: VCNATCHIWH [Compound 49]
- Activity (μM) 50, p62/actin assay activity (p62; [1]): +++/+++
- Activity (μM) 100, p62/actin assay activity (p62; [1]): +++/+++
- Activity (μM) 50, LC3 assay activity (LC3; [2]): +++/+++
- Activity (μM) 100, LC3 assay activity (LC3; [2]): +++/+++

Sequence: VCNACFHIWH [Compound 71]
- Activity (μM) 30, p62/actin assay activity (p62; [1]): 0
- Activity (μM) 50, p62/actin assay activity (p62; [1]): 0
- Activity (μM) 10, starred cell, p62/actin assay activity (p62; Table 8, 10 μM marked * (footnote: data taken at 20 instead of 30 μM), first symbol): 0
- Activity (μM) 30, LC3 assay activity (LC3; [2]): ++
- Activity (μM) 50, LC3 assay activity (LC3; [2]): +++
- Activity (μM) 10, starred cell, LC3 assay activity (LC3; Table 8, 10 μM marked * (footnote: data taken at 20 instead of 30 μM), second symbol): +

Sequence: VCNACFHIWH [Compound 4]
- Activity (μM) 10, p62/actin assay activity (p62; [3]): 0/0
- Activity (μM) 20, p62/actin assay activity (p62; [4]): 0/0
- Activity (μM) 30, p62/actin assay activity (p62; [5]): 0/0
- Activity (μM) 50, p62/actin assay activity (p62; [4]): 0/0
- Activity (μM) 50, p62/actin assay activity (p62; [5]): ++/++
- Activity (μM) 100, p62/actin assay activity (p62; [4]): +++
- Activity (μM) 100, p62/actin assay activity (p62; [5]): +++/+++
- Activity (μM) 10, LC3 assay activity (LC3; [6]): 0/0
- Activity (μM) 20, LC3 assay activity (LC3; [7]): 0/0
- Activity (μM) 30, LC3 assay activity (LC3; [8]): 0/0
- Activity (μM) 50, LC3 assay activity (LC3; [7]): 0/0
- Activity (μM) 50, LC3 assay activity (LC3; [8]): ++/++
- Activity (μM) 100, LC3 assay activity (LC3; [7]): +
- Activity (μM) 100, LC3 assay activity (LC3; [8]): +++/+++

Sequence: VCNACFHIWH [Compound 56]
- Activity (μM) 10, p62/actin assay activity (p62; [1]): 0/0
- Activity (μM) 30, p62/actin assay activity (p62; [1]): +
- Activity (μM) 50, p62/actin assay activity (p62; [1]): +
- Activity (μM) 10, LC3 assay activity (LC3; [2]): 0/0
- Activity (μM) 30, LC3 assay activity (LC3; [2]): 0
- Activity (μM) 50, LC3 assay activity (LC3; [2]): 0

Sequence: VCNATCHIWH [Compound 44]
- Activity (μM) 50, p62/actin assay activity (p62; [1]): 0/0
- Activity (μM) 100, p62/actin assay activity (p62; [1]): 0/0
- Activity (μM) 50, LC3 assay activity (LC3; [2]): 0/0
- Activity (μM) 100, LC3 assay activity (LC3; [2]): 0/0

Sequence: VWNATFHIWHD [62] ({c(FΦRRRRE)}-VWNATFHIWHD; not fully specified; printed as R1 cyclic c(FΦRRRRE) attached) [Compound 62]
- Activity (μM) 10, p62/actin assay activity (p62; [1]): ++
- Activity (μM) 30, starred cell, p62/actin assay activity (p62; Table 8, *Data taken at 20 instead of 30 μM, first symbol): +++/+++*
- Activity (μM) 10, LC3 assay activity (LC3; [2]): +++
- Activity (μM) 30, starred cell, LC3 assay activity (LC3; Table 8, *Data taken at 20 instead of 30 μM, second symbol): +++/+++*

Sequence: VCNATCHIWH [Compound 51]
- Activity (μM) 50, p62/actin assay activity (p62; [1]): +++/+++
- Activity (μM) 100, p62/actin assay activity (p62; [1]): +++/+++
- Activity (μM) 50, LC3 assay activity (LC3; [2]): +++/+++
- Activity (μM) 100, LC3 assay activity (LC3; [2]): +++/+++

Sequence: VCNACFHIWH [Compound 53]
- Activity (μM) 50, p62/actin assay activity (p62; [1]): +++
- Activity (μM) 100, p62/actin assay activity (p62; [1]): +++
- Activity (μM) 50, LC3 assay activity (LC3; [2]): ++
- Activity (μM) 100, LC3 assay activity (LC3; [2]): ++

Sequence: VCNACFHIWH [Compound 10]
- Activity (μM) 10, p62/actin assay activity (p62; [3]): 0
- Activity (μM) 20, p62/actin assay activity (p62; [4]): 0
- Activity (μM) 50, p62/actin assay activity (p62; [4]): 0
- Activity (μM) 10, LC3 assay activity (LC3; [6]): +
- Activity (μM) 20, LC3 assay activity (LC3; [7]): ++
- Activity (μM) 50, LC3 assay activity (LC3; [7]): +++

Sequence: VCNATCHIWH [Compound 23]
- Activity (μM) 10, p62/actin assay activity (p62; [9]): +
- Activity (μM) 30, p62/actin assay activity (p62; [9]): ++/++
- Activity (μM) 50, p62/actin assay activity (p62; [9]): +++
- Activity (μM) 100, p62/actin assay activity (p62; [9]): +++
- Activity (μM) 10, LC3 assay activity (LC3; [10]): 0
- Activity (μM) 30, LC3 assay activity (LC3; [10]): ++/++
- Activity (μM) 50, LC3 assay activity (LC3; [10]): ++
- Activity (μM) 100, LC3 assay activity (LC3; [10]): ++
